Data taken from patent publication US20210061859A1, “NTCP Inhibitor” (The University of Tokyo, priority 2018, published 2021).
Converted amounts (≈) assume the structure as drawn. Where a SMILES comes first, the peptide text is derived from it. Bridges are numbered along the chain shown (N, C = ends). [ ]: non-standard residue; d: D form. Sar = CNCC(=O)O

Columns and labels:
HBV genotype D [1] = test: HBV infection assay in HepG2-hNTCP-C4 cells (HBs and HBc antigens); assay type: cell-based, hepatitis B virus; settings: 100 nM entecavir
Method: HBs antigen secreted into a culture supernatant (a) and HBc antigen in the cells (b) were detected by ELISA and an immunofluorescence method, respectively. A cell survival rate was measured by quantifying total cellular DNA (c). The staining images of (b) each show the HBc antigen and the nucleus. […] HBs antigen secreted into a culture supernatant was detected by ELISA. Data is indicated by mean±SD. Statistical significance was determined by use of Student's t test as to all numbers (*P<0.05, **P<0.01, N.S.: not significant). […]
HBs antigen was quantified by enzyme-linked immunosorbent assay (ELISA) as described in a known method (the method described in Watashi, K. et al. Interleukin-1 and tumor necrosis factor-alpha trigger restriction of hepatitis B virus infection via a cytidine deaminase activation-induced cytidine deaminase (AID). The Journal of biological chemistry 288, 31715-31727 (2013)). […]
After HBV inoculation, HBs antigen was measured in a culture supernatant, and HBc antigen was evaluated in the cells to confirm HBV infection, as shown in FIG. 2(a).

HBV genotype D [2] = assay type: cell-based, hepatitis B virus; settings: primary human hepatocytes, purified HBV as inoculum, HBs antigen in culture supernatant; read-out: 50% inhibitory concentrations (IC50), HBs antigen
Method: FIG. 2 is a diagram showing the anti-HBV effect of a peptide from initial screening. FIG. 2(a) is a schematic diagram of a HepG2-hNTCP-C4 infection experiment. HepG2-hNTCP-C4 cells were pretreated with a peptide for 2 hours and subsequently inoculated with HBV for 16 hours in the presence of the peptide. Free HBV and peptide were washed off. Then, the cells were further cultured for 12 days in the absence of the peptide, and HBV infection was evaluated on the basis of measurement of HBs antigen in the culture supernatant. The filled boxes and the broken-line boxes depict periods for which the treatment was performed and periods for which the treatment was not performed, respectively. […] HBV infection was evaluated by monitoring HBs antigen secreted into a culture supernatant on 12 days after inoculation by ELISA. In FIG. 2(c), a cell survival rate was measured by MTT assay.
FIG. 3 is a diagram showing the anti-HBV effect of a peptide by focused library screening. […] HBV infection was evaluated by measurement of HBe antigen (a), and a cell survival rate (b) was evaluated by MTT assay as shown in FIG. 2.
HBV genotype D used in this study (FIGS. 1 to 3) was derived from the culture supernatant of Hep38.7-Tet cells, and prepared by a known method (the method described in Tsukuda, S. et al. Dysregulation of retinoic acid receptor diminishes hepatocyte permissiveness to hepatitis B virus infection through modulation of sodium taurocholate cotransporting polypeptide (NTCP) expression. The Journal of biological chemistry 290, 5673-5684 (2015), and Ogura, N., Watashi, K., Noguchi, T. & Wakita, T. Formation of covalently closed circular DNA in Hep38.7-Tet cells, a tetracycline inducible hepatitis B virus expression cell line. Biochemical and biophysical research communications 452, 315-321 (2014)). Purified HBV (FIG. 1(d)) was prepared by ultrafiltration to remove an excess of components in FBS and medium. HBV genotypes A, B, and C and genotype C having the L180M/S202G/M204V mutations (nucleoside analog-resistant HBV) or G145R substitution (vaccine-escape HBV) (FIG. 4(d)) were prepared from the culture supernatant of HepG2 cells transfected with the corresponding expression plasmid. HBV was inoculated at 12,000 (FIGS. 1(a), 1(b), and 1(d)), 1000 to 2000 (FIG. 2(b)) or 500 (FIGS. 3(a) and 4(d)) genome equivalents (GEq)/cell in the presence of 4% polyethylene glycol 8000 (PEG8000) and incubated at 37° C. for 16 hours by a known method (the method described in Watashi, K. et al. Interleukin-1 and tumor necrosis factor-alpha trigger restriction of hepatitis B virus infection via a cytidine deaminase activation-induced cytidine deaminase (AID). The Journal of biological chemistry 288, 31715-31727 (2013)).
HBe antigen was detected by a chemiluminescence immunoassay (CLIA) (LSI Medience Corp.). HBs antigen was quantified by enzyme-linked immunosorbent assay (ELISA) as described in a known method (the method described in Watashi, K. et al. Interleukin-1 and tumor necrosis factor-alpha trigger restriction of hepatitis B virus infection via a cytidine deaminase activation-induced cytidine deaminase (AID). The Journal of biological chemistry 288, 31715-31727 (2013)).
Subsequently, the present inventors evaluated the effect of the 10 peptides described above on HBV infection in primary human hepatocytes. […] HBV infection was evaluated by measuring HBs antigen in the culture supernatant. […]

human NTCP = biological target: T1, human NTCP (Homo sapiens, UniProt Q14973); test: Surface plasmon resonance binding to immobilized recombinant NTCP; settings: single-cycle kinetics, 1:1 binding model, NTCP immobilized on NTA-Ni2+, read-out: Kd
T1 construct: made in house; host or cells: wheat germ cell-free protein synthesis system
T1 sequence (Q14973 1-349): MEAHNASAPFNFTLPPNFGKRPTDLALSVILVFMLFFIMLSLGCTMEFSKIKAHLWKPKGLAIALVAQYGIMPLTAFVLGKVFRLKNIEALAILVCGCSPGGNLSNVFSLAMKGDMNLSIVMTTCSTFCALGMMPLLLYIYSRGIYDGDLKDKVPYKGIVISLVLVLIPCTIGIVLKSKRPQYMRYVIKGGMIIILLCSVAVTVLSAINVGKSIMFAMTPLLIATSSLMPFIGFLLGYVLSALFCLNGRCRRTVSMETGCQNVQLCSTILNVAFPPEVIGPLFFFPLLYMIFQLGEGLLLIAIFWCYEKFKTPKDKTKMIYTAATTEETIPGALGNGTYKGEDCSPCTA
Method: (§1) FIG. 7 is a diagram showing the NTCP association constant of a peptide identified by first RaPID screening. A single-cycle reaction kinetics experiment was conducted using NTCP immobilized on surface (NTA-Ni^2+) involving varying concentrations of a cyclic peptide analyte. In each case, as shown in the drawing, the peptide was tested with 4-fold serial dilutions starting from the highest concentration of 200 or 1000 nM. A dissociation constant (KD) was determined using a 1:1 binding model.
as §1, with “9” for “7”, “focused library” for “first”, “association constant” for “reaction kinetics”
The association constant of each peptide for human NTCP was measured using a Biacore T200 apparatus (GE Healthcare Japan Corp.). The running buffer solution used was HBS-P+ (10 mM HEPES, 150 mM NaCl, and 0.05 vol % surfactant P20, pH 7.4) containing 0.1 vol % DMSO and 1 mM β-dodecyl-maltoside. 100 nM recombinant NTCP was immobilized on a NTA chip treated with Ni^2+ according to the manufacturer's instructions (baseline response: 1000 to 3000 refraction units). Peptides were injected as analytes at a flow rate of 60 μL/min, and association constants were modelled using a 1:1 binding model.

HepG2-hNTCP-C4 cells = settings: HBV infection assay
Method: HBs antigen secreted into a culture supernatant (a) and HBc antigen in the cells (b) were detected by ELISA and an immunofluorescence method, respectively. A cell survival rate was measured by quantifying total cellular DNA (c). […] Data is indicated by mean±SD. Statistical significance was determined by use of Student's t test as to all numbers (*P<0.05, **P<0.01, N.S.: not significant).

[3] = biological target: human NTCP on cells (HepG2-hNTCP-C4 cells overexpressing the human NTCP gene; primary human hepatocytes) (human) (UniProt Q14973); test: cell-based or functional assay

Q: Which “HBV infection monitored by HBc antigen” value (HBV genotype D [1]) does the source give for `C=C1[C@H](CO)[C@@H](O)C[C@@H]1n1cnc2c(=O)[nH]c(N)nc21` [entecavir] here?
A: did not exhibit a significant reduction

Q: And the “HBV infection monitored by HBs antigen” value (HBV genotype D [1])?
A: did not exhibit a significant reduction

Q: Which IC50 (HBV genotype D [2]) does the source give for `CC[C@H](C)[C@@H]1NC(=O)[C@H](Cc2ccccc2)NC(=O)[C@@H](Cc2ccc(O)cc2)NC(=O)CSC[C@@H](C(=O)N[C@H](C(N)=O)[C@@H](C)O)NC(=O)[C@H](CO)NC(=O)[C@H](Cc2c[nH]c3ccccc23)NC(=O)[C@H]([C@@H](C)O)NC(=O)[C@H](Cc2c[nH]c3ccccc23)NC(=O)[C@H]([C@@H](C)O)NC(=O)[C@H](Cc2c[nH]c3ccccc23)NC(=O)[C@H]([C@@H](C)O)NC(=O)CN(C)C(=O)[C@H](C(C)C)NC(=O)[C@H]([C@@H](C)CC)NC1=O` [WD1] ({CH2CO}-[dY]FIIV[Sar]TWTWTWSCT-NH2; thioether N-14) here?
A: 850 ± 10 nM

Q: What about the Kd (human NTCP) of the same compound?
A: 15 nM

Q: What about the “cytotoxicity (cell survival rate, total cellular DNA)” value (HepG2-hNTCP-C4 cells) of the same compound?
A: without marked cytotoxicity

Q: And the solubility?
A: ~30 µM (≈ 57.5 µg/mL)

Q: Which 50% inhibitory concentration (IC50), HBs antigen in culture supernatant, HBV infection assay [3] does the source give for cyclosporin A (peptide) here?
A: 3170 nM

Q: Which IC50 (HBV genotype D [2]) does the source give for `CC[C@H](C)[C@@H]1NC(=O)[C@H](Cc2c[nH]c3ccccc23)NC(=O)[C@H]([C@@H](C)CC)NC(=O)[C@H](C(C)C)NC(=O)[C@H](Cc2ccc(O)cc2)NC(=O)CSC[C@@H](C(=O)N[C@H](C(N)=O)[C@@H](C)O)NC(=O)[C@H](Cc2ccc(O)cc2)NC(=O)[C@H](Cc2ccc(O)cc2)NC(=O)[C@H](Cc2ccccc2)NC(=O)[C@H](Cc2c[nH]cn2)NC(=O)[C@H](CC(N)=O)NC(=O)[C@@H]2CCCN2C(=O)[C@H](Cc2c[nH]c3ccccc23)NC1=O` [WL4] ({CH2CO}-YVIWIWPNHFYYCT-NH2; thioether N-13) here?
A: 660 ± 30 nM

Q: What about the Kd (human NTCP) of the same compound?
A: 42 nM

Q: And the “cytotoxicity (cell survival rate, total cellular DNA)” value (HepG2-hNTCP-C4 cells)?
A: without marked cytotoxicity

Q: What about the solubility of the same compound?
A: ~30 µM (≈ 58.3 µg/mL)
